Data on four cell lines can be found in the supplement of paper PMC10307832.

Holding throughout (test): relative viability (nuclei count vs DMSO), 5 days (fraction); higher = more cells survive
Compound in the assay “NVP-TAE684 + Dasatinib”: COc1cc(N2CCC(N3CCN(C)CC3)CC2)ccc1Nc1ncc(Cl)c(Nc2ccccc2S(=O)(=O)C(C)C)n1 [NVP-TAE684] + Cc1nc(Nc2ncc(C(=O)Nc3c(C)cccc3Cl)s2)cc(N2CCN(CCO)CC2)n1 [Dasatinib] (partner 0.075 µM)
An outline of the steps: (§1)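 Relative viability equals treated-well nuclei counts divided by vehicle-well nuclei counts. Counts came from 4× images of lung cancer cell lines grown in 1536-well plates for 5 days after pin-tool dosing on the day after seeding. Dosing used one drug alone or a fixed anchor-drug dose plus five library-drug doses (not always all listed) in √10 steps, and values are medians of duplicate plates.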

Compound in the assay “CUDC-101 + Navitoclax”: C#Cc1cccc(Nc2ncnc3cc(OC)c(OCCCCCCC(=O)NO)cc23)c1 [CUDC-101] + CC1(C)CCC(c2ccc(Cl)cc2)=C(CN2CCN(c3ccc(C(=O)NS(=O)(=O)c4ccc(N[C@H](CCN5CCOCC5)CSc5ccccc5)c(S(=O)(=O)C(F)(F)F)c4)cc3)CC2)C1 [Navitoclax] (partner 0.5 µM)
The gist of the method:
as §1

Compound in assay [1]: C1=CC=C2C(=C1)N=C(S2)C(C#N)C3=NC(=NC=C3)NCCC4=CN=CC=C4 + NC(=O)Nc1cc(-c2cccc(F)c2)sc1C(=O)N[C@H]1CCCNC1 [AZD7762] (partner 0.2 µM)
An outline of the steps:
as §1

Compound in the assay “Vandetanib + Pemetrexed”: COc1cc2/c(=N/c3ccc(Br)cc3F)nc[nH]c2cc1OCC1CCN(C)CC1 [Vandetanib] + Nc1nc2[nH]cc(CCc3ccc(C(=O)N[C@@H](CCC(=O)O)C(=O)O)cc3)c2c(=O)[nH]1 [Pemetrexed] (partner 0.2 µM)
The gist of the method: as §1

As for NCI-H647, the relative viability worked out at 0.0949 in the assay with NVP-TAE684 + Dasatinib (first compound 0.2 µM); 0.103 in the assay with NVP-TAE684 + Dasatinib (first compound 0.6325 µM); 0.0648 in the assay with NVP-TAE684 + Dasatinib (first compound 2 µM); 1.2 with CUDC-101 + Navitoclax (first compound 0.01 µM); 1.01 with CUDC-101 + Navitoclax (first compound 0.03162 µM); 1.11 with CUDC-101 + Navitoclax (first compound 0.1 µM). The relative viability in the assay with CUDC-101 + Navitoclax (first compound 0.3162 µM) is 1.09; with CUDC-101 + Navitoclax (first compound 1 µM) it was 0.844; in assay [1] (first compound 0.005 µM), 0.27; in assay [1] (first compound 0.01581 µM), 0.281; in assay [1] (first compound 0.05 µM) it was 0.513; in assay [1] (first compound 0.1581 µM), 0.512. For the same cell line, the relative viability in assay [1] (first compound 0.5 µM) amounted to 0.372; with Vandetanib + Pemetrexed (first compound 0.02 µM), 0.185; with Vandetanib + Pemetrexed (first compound 0.06325 µM), 0.152; with Vandetanib + Pemetrexed (first compound 0.2 µM) it was 0.182; with Vandetanib + Pemetrexed (first compound 0.6325 µM), 0.153; in the assay with Vandetanib + Pemetrexed (first compound 2 µM), 0.175.
Consider LC-2-ad, for which the relative viability with NVP-TAE684 + Dasatinib (first compound 0.2 µM) was 0.293; with NVP-TAE684 + Dasatinib (first compound 2 µM), 0.228; with CUDC-101 + Navitoclax (first compound 0.01 µM) it was 0.462; with CUDC-101 + Navitoclax (first compound 0.03162 µM) it was 0.475; with CUDC-101 + Navitoclax (first compound 0.1 µM) it was 0.49; in the assay with CUDC-101 + Navitoclax (first compound 0.3162 µM), 0.517. Moreover, the relative viability in the assay with CUDC-101 + Navitoclax (first compound 1 µM) was 0.196; in assay [1] (first compound 0.005 µM), 0.674; in assay [1] (first compound 0.01581 µM) it was 0.847; in assay [1] (first compound 0.05 µM) it was 0.83; in assay [1] (first compound 0.1581 µM), 0.968; in assay [1] (first compound 0.5 µM) it was 0.692. In addition, the relative viability with Vandetanib + Pemetrexed (first compound 0.02 µM) was determined as 0.257; with Vandetanib + Pemetrexed (first compound 0.06325 µM) it was 0.278; with Vandetanib + Pemetrexed (first compound 0.2 µM), 0.273; with Vandetanib + Pemetrexed (first compound 0.6325 µM) it was 0.259; in the assay with Vandetanib + Pemetrexed (first compound 2 µM), 0.264.
With LK-2, the relative viability with NVP-TAE684 + Dasatinib (first compound 0.2 µM) came out at 0.236; in the assay with NVP-TAE684 + Dasatinib (first compound 0.6325 µM), 0.243; in the assay with NVP-TAE684 + Dasatinib (first compound 2 µM), 0.185; in the assay with CUDC-101 + Navitoclax (first compound 0.01 µM) it was 0.927; with CUDC-101 + Navitoclax (first compound 0.03162 µM), 0.826; in the assay with CUDC-101 + Navitoclax (first compound 0.1 µM), 0.819. In addition, the relative viability was 0.741 with CUDC-101 + Navitoclax (first compound 0.3162 µM); 0.415 in the assay with CUDC-101 + Navitoclax (first compound 1 µM); 0.347 in assay [1] (first compound 0.005 µM); 0.41 in assay [1] (first compound 0.01581 µM); 0.488 in assay [1] (first compound 0.05 µM); 0.454 in assay [1] (first compound 0.1581 µM). The relative viability was 0.445 in assay [1] (first compound 0.5 µM); 0.259 in the assay with Vandetanib + Pemetrexed (first compound 0.02 µM); 0.228 with Vandetanib + Pemetrexed (first compound 0.06325 µM); 0.284 with Vandetanib + Pemetrexed (first compound 0.2 µM); 0.276 in the assay with Vandetanib + Pemetrexed (first compound 0.6325 µM); 0.245 with Vandetanib + Pemetrexed (first compound 2 µM).
With NCI-H1975, the relative viability came out at 0.361 in the assay with NVP-TAE684 + Dasatinib (first compound 0.2 µM); 0.225 in the assay with NVP-TAE684 + Dasatinib (first compound 0.6325 µM); 0.186 with NVP-TAE684 + Dasatinib (first compound 2 µM); 1.32 with CUDC-101 + Navitoclax (first compound 0.01 µM); 1.09 with CUDC-101 + Navitoclax (first compound 0.03162 µM); 1.19 in the assay with CUDC-101 + Navitoclax (first compound 0.1 µM). Further, the relative viability with CUDC-101 + Navitoclax (first compound 0.3162 µM) turned out to be 1.27; with CUDC-101 + Navitoclax (first compound 1 µM), 1.13; in assay [1] (first compound 0.005 µM), 0.639; in assay [1] (first compound 0.01581 µM), 0.635; in assay [1] (first compound 0.05 µM), 0.711; in assay [1] (first compound 0.1581 µM), 0.743. For the same cell line, the relative viability was determined as 0.506 in assay [1] (first compound 0.5 µM); 0.296 with Vandetanib + Pemetrexed (first compound 0.02 µM); 0.275 with Vandetanib + Pemetrexed (first compound 0.06325 µM); 0.268 in the assay with Vandetanib + Pemetrexed (first compound 0.2 µM); 0.285 with Vandetanib + Pemetrexed (first compound 0.6325 µM); 0.306 in the assay with Vandetanib + Pemetrexed (first compound 2 µM).
